# Measured values published in US10946057B2, “Antiseptics” (INSIGHT HEALTH LIMITED, priority 2007, dated 2021).
# Where two headings read alike, the source gives them in different places.
# What was measured:
# [1] = Skin permeation study CHG + eucalyptus oil, Franz diffusion cells, receptor fluid by HPLC; assay type: in vitro ADME; conditions: 24 hour skin permeation, full thickness human skin, Franz cell
# Experimental: Prior to the study full ethical committee approval and written consent from patients donating the tissue was obtained. […] Vertical diffusion cells (Franz diffusion cells), with an average diffusion surface area of 1.65 cm^2, were used for skin permeation studies. Phosphate buffered saline (PBS) was used as a receptor fluid, and left overnight in a receptor compartment (approximately volume 29 mls) with circulating water jacket set at 37° C. On the day of investigation the excised skin was thawed in PBS and cut into size to fit Franz diffusion cells (2.9 cm circle across). The skin samples were mounted into Franz diffusion cells and left for 1 hour in the diffusion cells to equilibrate with the receptor fluid prior to commencing the study. […] One millilitre of CHG solution of CHG/eucalyptus oil suspension was aliquoted in triplicate on the surface of the excised human skin on the donor compartment in Franz diffusion cells. The temperature was maintained constant by a circulating water jacket set at 37° C. and the receptor fluid was agitated continuously by magnetic stirrer bar. […] The samples were filtered and analysed by HPLC. Chlorhexidine digluconate was analysed quantitatively by HPLC. […] The samples were filtered and analysed with HPLC (Agilent 1100) with ODS-2 Hypersil column (5μ particle size) (Thermo Electron Corporation, UK) with a flow rate of 1.2 mls/min, detector wavelength 254 nm.
# [2] = test system: S. epidermidis RP62A biofilm; assay: Antimicrobial activity against S. epidermidis biofilm by ATP bioluminescence; assay type: cell-based, Staphylococcus epidermidis; conditions: for MBC/biofilm eradicating concentration / Minimum inhibitory concentration (MIC), bacteria growing in biofilm: S. epidermidis RP62A biofilm
# Experimental: S. epidermidis RP62A was used for its ability to produce a biofilm (Sadovskaya, et al., 2005). Bacteria were stored on beads (MicroBank, Pro-Lab Diagnostics, Cheshire, UK) at −70° C. until required. The ability of the strain to produce slime was confirmed by culturing the bacteria on Congo Red agar (Freeman, et al., 1989). For producing the microbial biofilms, the strains were first inoculated onto Muller-Hinton agar (MHA) (Oxoid, Basingstoke, UK) and incubated in air at 37° C. for 18-20 hours. Ten colonies from the culture plate were suspended into sterile phosphate buffered saline (PBS, Sigma, Dorset, UK). The bacterial concentration was adjusted to 1×10*8 cfu/mL by diluting the culture with sterile PBS and measuring the OD at 570 nm (calibration curve for S. epidermidis cfu against OD at 570 nm were performed prior to the study, data not shown). The suspension was further diluted with Muller-Hinton broth (MHB) supplemented with 2% (w/v) glucose (Fisher Scientific, Leicester, UK) to obtain inocula containing 1×10*5 cfu/mL. Two hundred μL of the bacterial suspension were aliquoted into wells of white walled, clear bottom, tissue culture treated 96-well microtitre plate (Corning Incorporated, NY, USA). The wells in the last column of the plate served as a control, and contained 200 μL of MHB supplemented with 2% (w/v) glucose only. Microtitre plates were incubated in air at 37° C. for 48 hours.
# (§1) Aqueous chlorhexidine digluconate (CHG), tea tree oil (TTO), eucalyptus oil (EO) and thymol (all from Sigma-Aldrich) were diluted with MHB to obtain stock solution of 512 mg/mL for essential oils and 512 μg/mL for CHG. Five percent (v/v) dimethylsulphoxide (DMSO) (Sigma-Aldrich) was added to the stocks of essential oils to enhance their solubility of the oils in suspension.
# Prior to antimicrobial susceptibility studies, a standard curve for relative light units (RLU) versus bacterial cfu/mL was performed. S. epidermidis was grown with MHB supplemented with 2% (w/v) glucose in a 96-well microtitre plate as described previously to obtain bacterial biofilms. The wells of the microtitre plate with established bacterial biofilms were washed three times with sterile PBS and biofilms were removed from the wells by using “a scrape and wash method” (Adams, 2006). In brief, each well was filled with 200 μL of sterile PBS and, with a sterile pipette tip, the wall of each well was scraped approximately 10 times and the bottom scraped horizontally, vertically and cross-wise in each direction 10 times. The suspension was removed and collected into a sterile Eppendorf tube and the procedure repeated a further 4 times to obtain a final volume of 1000 μL per tube. The procedure was performed on three wells separately. The suspensions were mixed by vortexing and serial dilutions were performed in sterile PBS. 100 μL of the neat suspension and 10^−1 to 10^−5 dilutions were aliquoted onto wells of a white-walled, clear bottom microtitre plate. 100 microlitres of bactolyse were added into each well. The plate was then floated on a water bath sonicator and the plate was sonicated at 50 Hz for 30 minutes to lyse the cells and release the bacterial ATP. Twenty μL of luciferase where added into each well and luminescence read by a luminometer. The bacterial cfu in each suspension and dilution were established by the drop count method. The results were expressed as cfu against RLU.
# Microtitre plates containing S. epidermidis RP62A biofilm were washed once with sterile PBS to remove any unbound bacteria. Antimicrobial agents were diluted with MHB to obtain CHG concentrations of 128 μg/mL to 0.25 μg/mL and essential oil concentrations of 256 mg/mL to 0.5 mg/mL. Two hundred and fifty microlitres of the antimicrobial compound were added in the wells in triplicate. Columns 11 and 12 served as controls with biofilm with saline alone and clear wells with MHB alone without bacterial biofilm.
# [3] = test system: S. epidermidis RP62A (planktonic cells, suspension); assay: MIC/MBC by microbroth dilution assay, S. epidermidis in suspension; assay type: cell-based; conditions: Staphylococcus epidermidis, read-out: Minimum inhibitory concentration (MIC), planktonic cells
# Experimental: Test inocula for the suspension assay were prepared by suspending 10 colonies of S. epidermidis RP62A from an overnight culture on MHA into sterile PBS. The bacterial concentration was adjusted to 1×10*8 cfu/mL by diluting the culture with sterile PBS and measuring the OD at 570 nm (calibration curve for S. epidermidis cfu against OD at 570 nm were performed prior to the study, data not shown). The suspension was further diluted with MHB to obtain inocula containing 1×10*7 cfu/mL for synergy assays or 1×10*6 cfu/ml for testing antimicrobial activity of CHG and oils alone in suspension.
# as §1
# Minimum inhibitory concentration (MIC) and minimum bacterial concentration (MBC) of aqueous CHG, TTO, EO and thymol were performed by microbroth dilution assay (NCCLS, 1997). […] Minimum bactericidal concentrations were determined by removing the suspension from the clear wells into MHA, spread with a sterile spreader and incubating the plates in air at 37° C. for 18-20 hours. […]
# [4] = Skin permeation of CHG with EO and IPA, Franz diffusion cells, receptor compartment by HPLC; conditions: 24 h permeation study, skin from two donors; LOD 0.0157 μg/mL
# Experimental: The full thickness human skin was frozen on the day of excision and stored at −70° C. until required.
# Skin permeation studies were performed with vertical Franz diffusion cells. The receptor compartment was filled with 29 mL of PBS and maintained at 37° C. by a circulating water jacket and agitated by stirring with a magnetic bar. Skin samples were thawed in PBS at room temperature, dried with an absorbent towel and mounted onto Franz diffusion cells with the stratum corneum (SC) uppermost facing the donor compartment. The surface area exposed to the test compound was 3.14 cm2 (2 cm in diameter). All entrapped air was removed between the skin and receptor fluid and the skin was left to equilibrate for 30 min to reach the skin surface temperature of 32° C.
# Twenty percent (w/v) aqueous CHG was diluted with distilled water, IPA and EO to obtain the final concentrations of 2% (w/v) CHG in 70% (v/v) IPA and 2% (w/v) CHG with 5%, 10%, 20% and 50% (v/v) EO. Tween 80 [0.1% (v/v)] was added to the test solutions to enhance EO solubility in the vehicle. One millilitre of test solution was spread over the skin surface in the donor compartment and the compartment was sealed with a moisture resistant film to prevent evaporation. […] All samples were filtered through a 0.45 μm nylon filter (Kinesis, UK) and analysed by HPLC. […]
# [5] = CHG penetration profile studies with EO and IPA (CHG extracted from skin sections); assay type: in vitro ADME, human
# Experimental: Following exposure, the skin samples were removed, washed with PBS and dried with an absorbent towel. The skin samples were immediately sprayed with a cryospray (Bright Instruments) and frozen at -20° C. Punch biopsies (7 mm in diameter) were cut from each frozen sample in triplicate and placed onto a cork disc in embedding compound (Bright Instruments, Cambs, UK), The frozen samples were sectioned horizontally with a microtome (Bright Instruments) into 20 μm sections (from the surface to a depth of 600 μm) and 30 μm sections (from depths of 600 to 1500 μm). Each section was placed into an Eppendorf tube and the total weight of each skin sample determined. Chlorhexidine was extracted from the skin by aliquoting 1 mL of mobile phase solution (75% methanol, 25% distilled water, 0.1% sodium heptane sulphonate, 0.1% diethylamine, pH 4) into skin samples and incubated in water bath at 60° C. for 1 h. The samples were mixed by vortexing and filtered prior to analysis by HPLC. The results were calculated as μg of CHG per mg of skin. Control skin (skin without treatment) was analysed parallel to the test samples. The assay was performed in triplicate. The data obtained were analysed by a student t-test using […] software (Graph pad software version 3.06) with a p<0.05 level of significance.
Compound,Levels of CHG in the receptor fluid [1],MBC/biofilm eradicating concentration [2],"Minimum inhibitory concentration (MIC), bacteria growing in biofilm ([2]; agent alone)",MIC higher against bacteria growing in biofilm compared to planktonic cells ([2]; biofilm vs planktonic),MIC ([3]; agent alone),Chlorhexidine in the receptor compartment [4],"Mean concentration of CHG (and SEM) within the tissues ([5]; 2 min exposure, 300 to 1500 μm depths)","Mean CHG concentration (and SEM) ([5]; 30 min exposure, depths of 300 μm to 1500 μm)","CHG concentration extracted from the deeper layers of the skin ([5]; 24 h exposure, 300 to 1500 μm depths)","CHG concentration extracted from the top 100 μm layer ([5]; 24 h exposure, top 100 μm)","Minimum inhibitory concentration (MIC), bacteria growing in biofilm ([2]; oil alone)",MIC lower against biofilms compared to planktonic cells ([2]; biofilm vs planktonic),MIC ([3]; oil alone)
"[H]/N=C(\N/C(=N/[H])NCCCCCCNC(=N)NC(=N)Nc1ccc(Cl)cc1)Nc1ccc(Cl)cc1 [CHG, chlorhexidine digluconate]",did not show detectable levels,32 µg/mL,8 µg/mL,2 fold,2 µg/mL,not detected,0.0048 μg/mg tissue,0.0021 (±0.0004) μg/mg tissue,0.581 (±0.0466) μg per mg tissue,7.880 μg per mg tissue,,,
"Cc1ccc(C(C)C)c(O)c1 [Thymol, thymol]",,2000 µg/mL,,,,,,,,,1000 µg/mL,2 fold,4000 µg/mL
